Experimental data from patent publication US20250388575A1, “HETEROBIFUNCTIONAL COMPOUNDS AND METHODS OF TREATING DISEASE” (Halda Therapeutics OpCo, Inc., priority 2022, published 2025).

Assays:
[1] = test system: T-Rex 293 cell line SC3 cells having increased expression of androgen receptor protein; experiment: Cellular growth inhibition, T-Rex 293 SC3 cells with increased androgen receptor expression (doxycycline), CellTiter-Glo; format: cell-based; conditions: T-Rex 293 SC3 cells with increased androgen receptor expression (exposed to 10 ng/mL doxycycline), 72 hours, CellTiter-Glo; read-out: GI50
How it was run: (§1)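 SC3, a T-Rex 293 clone with doxycycline-inducible wild-type androgen receptor, was seeded in phenol red-free DMEM with 10% charcoal-dextran FBS, with or without 10 ng/mL doxycycline. Compound added at 24 h (0.5% DMSO) for 72 h at 37° C. CellTiter-Glo 2.0 luminescence; GI50 from four-parameter fit.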

[2] = test system: T-Rex 293 cell line SC3 cells lacking increased expression of androgen receptor protein; experiment: Cellular growth inhibition, T-Rex 293 SC3 cells lacking increased androgen receptor expression (no doxycycline), CellTiter-Glo; format: cell-based; conditions: T-Rex 293 SC3 cells lacking increased androgen receptor expression (not exposed to doxycycline), 72 hours, CellTiter-Glo; read-out: GI50
How it was run: as §1

BRD4-BD2 = BRD4-BD2 (Homo sapiens (Human), UniProt O60885); experiment: bromoKdELECT assay for binding affinity to BRD4-BD2; conditions: 11-point 3-fold dilution

SMILES | GI50 [1] [nM] | GI50 [2] [nM] | Kd (BRD4-BD2) [nM]
CCS(=O)(=O)Nc1ccc(Oc2cccc(OCCOC3CCN(c4ccc(C(=O)N[C@H]5CC[C@H](Oc6ccc(C#N)c(Cl)c6)CC5)nn4)CC3)c2)c(-c2cn(C)c(=O)c3[nH]ccc23)c1 [I-1, N-[4-(3-chloro-4-cyano-phenoxy)cyclohexyl]-6-[4-[2-[3-[4-(ethylsulfonylamino)-2-(6-methyl-7-oxo-1H-pyrrolo[2,3-c]pyridin-4-yl)phenoxy]phenoxy]ethoxy]-1-piperidyl]pyridazine-3-carboxamide] | < 500 | < 500 | –
CCS(=O)(=O)c1ccc(Oc2cccc(CCCOC3CC4(C3)CN(c3ccc(C(=O)N[C@H]5CC[C@H](Oc6ccc(C#N)c(Cl)c6)CC5)nn3)C4)c2F)c(-c2cn(C)c(=O)c3[nH]ccc23)c1 [I-46] | < 500 | < 500 | 500 to 2500
CCS(=O)(=O)c1ccc(Oc2cccc(CCC3CCN(c4ccc(C(=O)N[C@H]5CC[C@H](Oc6ccc(C#N)c(Cl)c6)CC5)nn4)CC3)c2F)c(-c2cn(C)c(=O)c3[nH]ccc23)c1 [I-51] | < 500 | < 500 | 50 to 500
CCS(=O)(=O)c1ccc(Oc2cccc(CCCC3CCN(c4ccc(C(=O)N[C@H]5CC[C@H](Oc6ccc(C#N)c(Cl)c6)CC5)nn4)CC3)c2F)c(-c2cn(C)c(=O)c3[nH]ccc23)c1 [I-52] | < 500 | < 500 | 50 to 500
CCS(=O)(=O)c1ccc(Oc2cc(F)c(CCC3CCN(c4ccc(C(=O)N[C@H]5CC[C@H](Oc6ccc(C#N)c(Cl)c6)CC5)nn4)CC3)cc2F)c(-c2cn(C)c(=O)c3[nH]ccc23)c1 [I-59] | < 500 | < 500 | 500 to 2500
Cn1cc(-c2cc(C(C)(C)O)ccc2Oc2ccc(OC3CN(c4ccc(C(=O)N[C@H]5CC[C@H](Oc6ccc(C#N)c(Cl)c6)CC5)nn4)C3)cc2)c2cc[nH]c2c1=O [I-95, N-[4-(3-chloro-4-cyano-phenoxy)cyclohexyl]-6-[3-[4-[4-(1-hydroxy-1-methyl-ethyl)-2-(6-methyl-7-oxo-1H-pyrrolo[2,3-c]pyridin-4-yl)phenoxy]phenoxy]azetidin-1-yl]pyridazine-3-carboxamide] | < 500 | < 500 | 500 to 2500
Cn1cc(-c2cc(C(C)(C)O)ccc2Oc2ccc(CCC3CCN(c4ccc(C(=O)N[C@H]5CC[C@H](Oc6ccc(C#N)c(Cl)c6)CC5)nn4)CC3)cc2)c2cc[nH]c2c1=O [I-102] | < 500 | 500 to 1500 | > 2500
Cn1cc(-c2cc(C(C)(C)O)ccc2Oc2c(F)cc(CCOC3CCN(c4ccc(C(=O)N[C@H]5CC[C@H](Oc6ccc(C#N)c(Cl)c6)CC5)nn4)CC3)cc2F)c2cc[nH]c2c1=O [I-109] | < 500 | < 500 | 500 to 2500
Cn1cc(-c2cc(C(C)(C)O)ccc2O[C@H]2C[C@H](N(C)CC3CCN(c4ccc(C(=O)N[C@H]5CC[C@H](Oc6ccc(C#N)c(Cl)c6)CC5)nn4)CC3)C2)c2cc[nH]c2c1=O [I-158, N-((1r,4r)-4-(3-chloro-4-cyanophenoxy)cyclohexyl)-6-(4-((((1r,3r)-3-(4-(2-hydroxypropan-2-yl)-2-(6-methyl-7-oxo-6,7-dihydro-1H-pyrrolo[2,3-c]pyridin-4-yl)phenoxy)cyclobutyl)(methyl)amino)methyl)piperidin-1-yl)pyridazine-3-carboxamide] | < 500 | < 500 | 50 to 500
